Results published in PubChem BioAssay (NCI).
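Step 1: Grow cells in 96-well plates. Step 2: Expose to compound for 48 hours at 5 concentrations. Step 3: Interpolate endpoints linearly; if unreached, use highest concentration. GI50 marks 50% less growth. TGI: total growth inhibition.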

How the values were obtained:
Assay in all cases: inhibition of tumour cell growth, NCI panel, 48 h
786-0 renal = test system: 786-0 renal
A498 renal = test system: A498 renal
A549 NSCLC = test system: A549 NSCLC
ACHN renal = test system: ACHN renal
BT-549 breast = test system: BT-549 breast
CAKI-1 renal = test system: CAKI-1 renal
CCRF-CEM leukemia = test system: CCRF-CEM leukemia
COLO 205 colon = test system: COLO 205 colon
DU-145 prostate = test system: DU-145 prostate
EKVX NSCLC = test system: EKVX NSCLC
HCC-2998 colon = test system: HCC-2998 colon
HCT-116 colon = test system: HCT-116 colon
HCT-15 colon = test system: HCT-15 colon
HL-60(TB) leukemia = test system: HL-60(TB) leukemia
HOP-62 NSCLC = test system: HOP-62 NSCLC
HOP-92 NSCLC = test system: HOP-92 NSCLC
HS 578T breast = test system: HS 578T breast
HT29 colon = test system: HT29 colon
IGROV1 ovarian = test system: IGROV1 ovarian
K-562 leukemia = test system: K-562 leukemia
KM12 colon = test system: KM12 colon
LOX IMVI melanoma = test system: LOX IMVI melanoma
M14 melanoma = test system: M14 melanoma
MALME-3M melanoma = test system: MALME-3M melanoma
MCF7 breast = test system: MCF7 breast
MDA-MB-231 breast = test system: MDA-MB-231 breast
MDA-MB-435 = test system: MDA-MB-435
MOLT-4 leukemia = test system: MOLT-4 leukemia
NCI-H226 lung = test system: NCI-H226 lung
NCI-H23 lung = test system: NCI-H23 lung
NCI-H460 lung = test system: NCI-H460 lung
NCI-H522 lung = test system: NCI-H522 lung
NCI/ADR-RES ovarian = test system: NCI/ADR-RES ovarian
OVCAR-3 ovarian = test system: OVCAR-3 ovarian
OVCAR-4 ovarian = test system: OVCAR-4 ovarian
OVCAR-5 ovarian = test system: OVCAR-5 ovarian
OVCAR-8 ovarian = test system: OVCAR-8 ovarian
PC-3 prostate = test system: PC-3 prostate
RPMI-8226 leukemia = test system: RPMI-8226 leukemia
RXF 393 renal = test system: RXF 393 renal
SF-268 CNS = test system: SF-268 CNS
SF-295 CNS = test system: SF-295 CNS
SF-539 CNS = test system: SF-539 CNS
SK-MEL-2 melanoma = test system: SK-MEL-2 melanoma
SK-MEL-28 melanoma = test system: SK-MEL-28 melanoma
SK-MEL-5 melanoma = test system: SK-MEL-5 melanoma
SK-OV-3 ovarian = test system: SK-OV-3 ovarian
SN12C renal = test system: SN12C renal
SNB-19 CNS = test system: SNB-19 CNS
SNB-75 CNS = test system: SNB-75 CNS
SR leukemia = test system: SR leukemia
SW-620 colon = test system: SW-620 colon
T-47D breast = test system: T-47D breast
TK-10 renal = test system: TK-10 renal
U251 CNS = test system: U251 CNS
UACC-257 melanoma = test system: UACC-257 melanoma
UACC-62 melanoma = test system: UACC-62 melanoma
UO-31 renal = test system: UO-31 renal

SMILES: O=S(=O)(Nc1ccc(Cl)c(F)c1)c1ccc(-c2cnc(C3CC3)o2)cc1
- GI50 (786-0 renal): 535 nM
- TGI (786-0 renal): 16200 nM
- GI50 (A498 renal): 232 nM
- TGI (A498 renal): 922 nM
- GI50 (A549 NSCLC): 825 nM
- TGI (A549 NSCLC): 14700 nM
- GI50 (ACHN renal): 622 nM
- TGI (ACHN renal): 15800 nM
- GI50 (BT-549 breast): 515 nM
- TGI (BT-549 breast): 15400 nM
- GI50 (CAKI-1 renal): 360 nM
- TGI (CAKI-1 renal): 15200 nM
- GI50 (CCRF-CEM leukemia): 382 nM
- TGI (CCRF-CEM leukemia): 21500 nM
- GI50 (COLO 205 colon): 651 nM
- TGI (COLO 205 colon): 9700 nM
- GI50 (DU-145 prostate): 1650 nM
- TGI (DU-145 prostate): 14700 nM
- GI50 (EKVX NSCLC): 1050 nM
- TGI (EKVX NSCLC): 14800 nM
- GI50 (HCC-2998 colon): 1720 nM
- TGI (HCC-2998 colon): 12300 nM
- GI50 (HCT-116 colon): 382 nM
- TGI (HCT-116 colon): 12700 nM
- GI50 (HCT-15 colon): 332 nM
- TGI (HCT-15 colon): 12600 nM
- GI50 (HL-60(TB) leukemia): 313 nM
- TGI (HL-60(TB) leukemia): 3800 nM
- GI50 (HOP-62 NSCLC): 579 nM
- TGI (HOP-62 NSCLC): 17600 nM
- GI50 (HOP-92 NSCLC): 734 nM
- TGI (HOP-92 NSCLC): 6610 nM
- GI50 (HS 578T breast): 355 nM
- TGI (HS 578T breast): 8560 nM
- GI50 (HT29 colon): 339 nM
- TGI (HT29 colon): 5270 nM
- GI50 (IGROV1 ovarian): 556 nM
- TGI (IGROV1 ovarian): 15200 nM
- GI50 (K-562 leukemia): 210 nM
- TGI (K-562 leukemia): > 65300 nM
- GI50 (KM12 colon): 379 nM
- TGI (KM12 colon): 13300 nM
- GI50 (LOX IMVI melanoma): 503 nM
- TGI (LOX IMVI melanoma): 19100 nM
- GI50 (M14 melanoma): 328 nM
- TGI (M14 melanoma): 12900 nM
- GI50 (MALME-3M melanoma): 821 nM
- TGI (MALME-3M melanoma): 23400 nM
- GI50 (MCF7 breast): 284 nM
- TGI (MCF7 breast): 13400 nM
- GI50 (MDA-MB-231 breast): 1060 nM
- TGI (MDA-MB-231 breast): 11500 nM
- GI50 (MDA-MB-435): 85.3 nM
- TGI (MDA-MB-435): 484 nM
- GI50 (MOLT-4 leukemia): 614 nM
- TGI (MOLT-4 leukemia): 25000 nM
- GI50 (NCI-H226 lung): 1250 nM
- TGI (NCI-H226 lung): 16500 nM
- GI50 (NCI-H23 lung): 1190 nM
- TGI (NCI-H23 lung): 13500 nM
- GI50 (NCI-H460 lung): 413 nM
- TGI (NCI-H460 lung): 11600 nM
- GI50 (NCI-H522 lung): 192 nM
- TGI (NCI-H522 lung): 4420 nM
- GI50 (NCI/ADR-RES ovarian): 369 nM
- TGI (NCI/ADR-RES ovarian): 7560 nM
- GI50 (OVCAR-3 ovarian): 357 nM
- TGI (OVCAR-3 ovarian): 3480 nM
- GI50 (OVCAR-4 ovarian): 1820 nM
- TGI (OVCAR-4 ovarian): 16200 nM
- GI50 (OVCAR-5 ovarian): 1610 nM
- TGI (OVCAR-5 ovarian): 14500 nM
- GI50 (OVCAR-8 ovarian): 1090 nM
- TGI (OVCAR-8 ovarian): 19800 nM
- GI50 (PC-3 prostate): 516 nM
- TGI (PC-3 prostate): 13900 nM
- GI50 (RPMI-8226 leukemia): 531 nM
- TGI (RPMI-8226 leukemia): > 53400 nM
- GI50 (RXF 393 renal): 282 nM
- TGI (RXF 393 renal): 2750 nM
- GI50 (SF-268 CNS): 1030 nM
- TGI (SF-268 CNS): 20100 nM
- GI50 (SF-295 CNS): 324 nM
- TGI (SF-295 CNS): 2990 nM
- GI50 (SF-539 CNS): 354 nM
- TGI (SF-539 CNS): 2780 nM
- GI50 (SK-MEL-2 melanoma): 603 nM
- TGI (SK-MEL-2 melanoma): 18900 nM
- GI50 (SK-MEL-28 melanoma): 1580 nM
- TGI (SK-MEL-28 melanoma): 17400 nM
- GI50 (SK-MEL-5 melanoma): 511 nM
- TGI (SK-MEL-5 melanoma): 11100 nM
- GI50 (SK-OV-3 ovarian): 887 nM
- TGI (SK-OV-3 ovarian): 18300 nM
- GI50 (SN12C renal): 808 nM
- TGI (SN12C renal): 14400 nM
- GI50 (SNB-19 CNS): 477 nM
- TGI (SNB-19 CNS): 14800 nM
- GI50 (SNB-75 CNS): 172 nM
- TGI (SNB-75 CNS): 692 nM
- GI50 (SR leukemia): 253 nM
- TGI (SR leukemia): > 43000 nM
- GI50 (SW-620 colon): 374 nM
- TGI (SW-620 colon): 15000 nM
- GI50 (T-47D breast): 436 nM
- TGI (T-47D breast): 15600 nM
- GI50 (TK-10 renal): 1550 nM
- TGI (TK-10 renal): 12700 nM
- GI50 (U251 CNS): 448 nM
- TGI (U251 CNS): 14400 nM
- GI50 (UACC-257 melanoma): 1350 nM
- TGI (UACC-257 melanoma): 18200 nM
- GI50 (UACC-62 melanoma): 281 nM
- TGI (UACC-62 melanoma): 8000 nM
- GI50 (UO-31 renal): 855 nM
- TGI (UO-31 renal): 11900 nM
